Laboratory results as given in patent publication US10688119B2, “Inhibitors of PCSK9 for treatment of lipoprotein metabolism disorders” (Aarhus Universitet, priority 2015, dated 2020).
“Also recorded” adds a separate entry of the source. Like-named read-outs stand apart in the source and are kept apart here.

B1: mAb 5E11: rat monoclonal antibody against the HSPG binding domain; VH SEQ ID NO: 7, VK SEQ ID NO: 5 (antibody, V domains shown)
VH: EVQLQESGPGLVKPSQSLSLTCSVTGYTITSGYDWSWIRRFPGNTMEWMGDISYSGSTNYNPSLKSRVSITRDTSKNQFFLQLNSVTTGDTATYYCAKLPGWGQGTLVTVSS
VL: DVVLTQTPVFLSVTLGDQTSISCRSSQSLEYSDGYTYLEWYLQKPGQSPQLLIYEVSNRFSGVPDRFIGSGSGTDFTLKISRVEPEDLGVYYCFQGTHDPLTFGSGTKLEIK

Columns and labels:
PCSK9 = PCSK9 (Homo sapiens, UniProt Q8NBP7); assay: Microscale Thermophoresis (MST) equilibrium binding to PCSK9; settings: 100 nM labelled PCSK9, PBS+0.05% Tween-20; read-out: KD (affinity for PCSK9, MST)
Chain of PCSK9 (Q8NBP7 153-692): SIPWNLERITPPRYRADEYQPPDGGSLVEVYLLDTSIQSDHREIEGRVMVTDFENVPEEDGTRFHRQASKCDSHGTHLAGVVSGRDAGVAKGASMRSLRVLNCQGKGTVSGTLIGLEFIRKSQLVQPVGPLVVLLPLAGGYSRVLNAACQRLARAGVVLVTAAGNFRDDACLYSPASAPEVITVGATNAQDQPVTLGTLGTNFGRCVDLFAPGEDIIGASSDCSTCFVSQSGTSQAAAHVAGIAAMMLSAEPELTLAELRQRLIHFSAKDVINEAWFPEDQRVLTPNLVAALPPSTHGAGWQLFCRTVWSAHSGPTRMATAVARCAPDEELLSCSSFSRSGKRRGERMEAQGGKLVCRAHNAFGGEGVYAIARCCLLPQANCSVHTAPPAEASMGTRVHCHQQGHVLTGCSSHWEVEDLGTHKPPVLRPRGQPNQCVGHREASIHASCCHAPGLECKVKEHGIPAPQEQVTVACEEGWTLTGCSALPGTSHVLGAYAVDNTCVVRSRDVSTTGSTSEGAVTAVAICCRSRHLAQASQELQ
Procedure: PCSK9 was labeled using the MO-L003 Monolith Blue-NHS labeling kit (NanoTemper Technologies) and a labeling efficiency of 1:1 molar ratio of protein to dye was achieved. PCSK9 was applied at a final concentration of 100 nM. […] MST measurements were performed in standard-treated capillaries (NanoTemper Technologies) on a Monolith NT.115 instrument (NanoTemper Technologies) using 20% LED and 80% MST power. Laser on and off times were 5 s and 35 s, respectively. Negative controls were performed using 100 nM of labelled PCSK9 in MST buffer in all 16 capillaries under the same conditions as mentioned above. […] For each binding partner, the sigmoidal dose-response curves were fitted with GraphPad Prism 6 to yield an average KD value.

LDLR in liver = assay: liver LDLR levels in mice after intravenous PCSK9 (Western blot); type: in vivo, mice (BALB6/cJRj); settings: 1 hour after PCSK9 10 μg; heparin 50 U or suramin 300 μg co-injected; heparinase I 30 U infused before
Procedure: To test the effect of enzymatic removal of heparan sulfate GAGs on PCSK9 activity in vivo 10-12 week-old male BALB6/cJRj mice were infused with heparinase I (30 U) administered through a tail vein catheter 5 min prior injection of PCSK9 (10 μg). In control mice the heparinase injection and/or the PCSK9 injection were replaced with an injection of 0.9% saline. During heparinase infusion, mice were lightly anaesthetized with isoflurane continuously administered through a mask.
Mice (BALB6/cJRj) were subjected to a single intravenous administration (tail vein) of 10 μg human recombinant PCSK9 alone or in combination with heparin (50 U). One hour post injection mice were sacrificed and liver tissues were collected.

HepG2 cells = assay: uptake of Bodipy-labelled LDL particles in HepG2 cells; type: cell-based, human; settings: suramin 200 μg/ml overnight, then 4 hours 10 ng/ml Bodipy LDL
Procedure: FIG. 12: Bar graphs showing the relative fluorescence signal in HepG2 cells after overnight incubation with suramin (200 μg/ml) following 4 hours incubation with 10 ng/ml LDL particles labeled with fluorescence dye Bodipy.

apoE−/− mice = settings: 4-week treatment, cited from earlier work
J774 macrophages = tested on: J774 macrophages; set-up: dose or concentration left out as unconfirmed; settings: cited from earlier work
LDLR in HepG2 cells = assay: LDLR levels in HepG2 cells by Western blot/densitometry (PCSK9 induced LDLR degradation)
Procedure: Purified PCSK9 variants were tested in a cell assay to test their ability to induce degradation of LDLR compared to wild-type PCSK9. Induction of LDLR degradation was analyzed by incubation of HepG2 cells with wild type PCSK9 (WT) or the above PCSK9 mutants and LDLR levels were assessed by Western blotting. HepG2 cells were seeded at a density 250.000 cells per well in 12-well plates. […] Cells were harvested and lysed following 18 hours incubation and LDLR levels were assessed by Western blotting and quantification by densitometry.
The PCSK9 inhibitory effect of overnight incubation with suramin (0-200 μg/ml) was tested in HepG2 cells (FIG. 9 A-B).

[1] = patients with elevated serum cholesterol, oral or subcutaneous Pentosan-polysulfate
Procedure: The patient receives subcutaneous injections of 25-500 mg of the composition at intervals of 1-28 days.
A patient with elevated LDL cholesterol is prescribed a statin treatment. […] The patient is then prescribed a treatment with subcutaneous injections of 25-500 mg of a composition comprising a humanized antibody directed against the HSPG binding site in human PCSK9. The injections take place at intervals of 1-28 days.
A patient with elevated LDL cholesterol levels is prescribed administration of a small molecule compound that is designed to block the HSPG binding site in human PCSK9. The compound is administered orally at a dosis of 0.1-30 mg/kg.
In addition to the statin, the patient is administered a compound inhibiting binding of HSPGs to PCSK9. The administration occurs weekly and with a low dose (25-150 mg) of the compound in combination with statins.
Cholesterol levels are then measured.

[2] = in vivo; cited from earlier work
[3] = molecular target: T1, R93R96R97R104R105H139 PCSK9 mutant and variants (Homo sapiens, UniProt Q8NBP7, H139A/R104A/R105A/R93A/R96A/R97A); assay: immunoprecipitation of 35S-mutant PCSK9 and PCSK9 variants; type: binding; settings: 500 μl conditioned hybridoma media
T1 construct: expressed in transfected cells
Procedure: (§1) Western blot of GAPDH is shown as loading control. (B) Western Blot showing LDLR levels in liver of mice 1 hour afterintravenous administration of 10 μg PCSK9 alone or in combination with 50 U Heparin. 50 μg membrane preparations were loaded. As control is shown Western Blot for sortilin, a PCSK9 receptor previously shown not to be target of PCSK9 induced degradation. (C) Quantification of B) Bands were quantified by densitometry and dot plot show the individual level of each sample in percent of vehicle (0.9% NaCl) injected controls with mean values and SEM. […] (D) Autoradiography (16 h exposure) showing immunoprecipitation of native human ^35S labeled PCSK9 by serum (1 μl) from three rats immunized with DNA encoding rat PCSK9 with human HSPG binding domain. As negative controls were used preimmune serum from the animals. (E) Western Blot showing LDLR in HepG2 cells after overnight incubation with preimmune or immune IgG (1 μg/ml). […] (F) Autoradiography (16 h exposure) showing immunoprecipitation of human ^35S-PCSK9 by 24 individual mAbs (500 μl conditioned hybridoma media) selected in ELISA screening performed by Aldevron. […] (G) Bar graphs showing LDLR levels (average of 2-4 experiments with SEM) in HepG2 cells incubated with mAbs (1:10 dilution of conditioned hybridoma media) as analysed by Western Blot. Twelve individual mAb clones give an approximately two-fold increase LDLR. (H) Autoradiography (16 h exposure) showing immunoprecipitation of human ^35S-mutant PCSK9 (with R93R96R97R104R105H139 mutated to alanine residues) by 12 individual mAbs (500 μl conditioned hybridoma media) all showing PCSK9 inhibitory effect. As control was used a polyclonal antibody (pAb, AF3888 from R&D systems). […] As control was used R&D Systems AF3888 (pAb).
(§2) These 12 clones were tested to see whether they can bind an R93R96R97R104R105H139 PCSK9 mutant (FIG. 8H).

[4] = tested on: R93R96R97R104R105H139 PCSK9 mutant and variants; assay: as above; type: binding, human; settings: WT, R96R97, R104R105, R93R96R97H139, R93R96R97R104R105H139
Procedure: as §1, §2

Row | Molecule | Kd (PCSK9) [µM] | liver LDLR level / PCSK9 induced degradation of LDLR in vivo (LDLR in liver) | uptake of fluorescently labelled LDL (HepG2 cells) | plaque size (apoE−/− mice; suramin 50 and PPADS 25 mg·kg-1·day-1, listed as Suramin) | plaque size (apoE−/− mice; suramin 50 and PPADS 25 mg·kg-1·day-1) | block of UDP effect on iNOS and interleukin-6 (J774 macrophages) | LDLR level compared with statins (LDLR in HepG2 cells; 100 μM suramin vs mevastatin and simvastatin, 24 and 48 hours) | LDLR level up regulated (LDLR in HepG2 cells; suramin 200 μg/ml, overnight) [times] | serum cholesterol levels [1] | median time of absorption from the digestive tract after an oral dose [2] [h] | plateau of cellular LDLR compared to vehicle control (LDLR in HepG2 cells; dose-dependent, HepG2 cells) | binding of R93R96R97R104R105H139 PCSK9 mutant (immunoprecipitation) [3] | immunoprecipitation of 35S-PCSK9 WT and variants (epitope) [4] | increase of cellular LDLR (LDLR in HepG2 cells; mAbs, 1:10 dilution of conditioned hybridoma media)
1 | Cc1ccc(C(=O)Nc2ccc(S(=O)(=O)O)c3cc(S(=O)(=O)O)cc(S(=O)(=O)O)c23)cc1NC(=O)c1cccc(NC(=O)Nc2cccc(C(=O)Nc3cc(C(=O)Nc4ccc(S(=O)(=O)O)c5cc(S(=O)(=O)O)cc(S(=O)(=O)O)c45)ccc3C)c2)c1 [suramin] | 190 | significantly higher level of LDLR | increased cellular uptake of fluorescently labelled LDL particles; also recorded: increases the uptake of LDL two-fold | reduce plaque size | reduces plaque size | blocked | higher level of LDLR that cells incubated with statins | 15 |  |  |  |  |  | 
2 | pentosan [pentosan sulfate] | 381 |  |  |  |  |  |  |  | decreased serum cholesterol levels | 2 | around 400% |  |  | 
3 | B1 |  |  |  |  |  |  |  |  |  |  |  | not able to bind this mutant | recognize only WT PCSK9; also recorded: recognize epitopes within the HSPG binding domain | approximately two fold
